Test results reported in paper PMC3590142 (PLoS ONE, 2013).

T1: RFT-1 (rft-1, Y47D7A.16) (Caenorhabditis elegans, UniProt Q3LFN0)
T1 construct: full-length 1,284 nt cDNA with corrected 3' end (differs from the older gene model) in pCI-neo; untagged; transient expression in human ARPE-19 cells; 11 predicted TM domains
T1 sequence (Q3LFN0 1-427): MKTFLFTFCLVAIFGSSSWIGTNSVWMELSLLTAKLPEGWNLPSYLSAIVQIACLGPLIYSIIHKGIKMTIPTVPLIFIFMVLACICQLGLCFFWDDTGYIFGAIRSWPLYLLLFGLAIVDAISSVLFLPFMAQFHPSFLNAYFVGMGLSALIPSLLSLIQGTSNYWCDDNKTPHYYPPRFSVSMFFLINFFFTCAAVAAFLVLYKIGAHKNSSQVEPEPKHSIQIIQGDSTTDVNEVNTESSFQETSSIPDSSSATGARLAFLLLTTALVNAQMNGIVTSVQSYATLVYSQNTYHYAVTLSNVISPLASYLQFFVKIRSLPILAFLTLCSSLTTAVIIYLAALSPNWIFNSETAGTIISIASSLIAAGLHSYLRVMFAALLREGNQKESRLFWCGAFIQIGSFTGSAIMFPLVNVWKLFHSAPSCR

T2: RFT-2 (rft-2, Y47D7A.14) (Caenorhabditis elegans, UniProt G4SDH4)
T2 construct: full-length cDNA in pCI-neo; untagged; transient expression in human ARPE-19 cells
T2 sequence (G4SDH4 1-476): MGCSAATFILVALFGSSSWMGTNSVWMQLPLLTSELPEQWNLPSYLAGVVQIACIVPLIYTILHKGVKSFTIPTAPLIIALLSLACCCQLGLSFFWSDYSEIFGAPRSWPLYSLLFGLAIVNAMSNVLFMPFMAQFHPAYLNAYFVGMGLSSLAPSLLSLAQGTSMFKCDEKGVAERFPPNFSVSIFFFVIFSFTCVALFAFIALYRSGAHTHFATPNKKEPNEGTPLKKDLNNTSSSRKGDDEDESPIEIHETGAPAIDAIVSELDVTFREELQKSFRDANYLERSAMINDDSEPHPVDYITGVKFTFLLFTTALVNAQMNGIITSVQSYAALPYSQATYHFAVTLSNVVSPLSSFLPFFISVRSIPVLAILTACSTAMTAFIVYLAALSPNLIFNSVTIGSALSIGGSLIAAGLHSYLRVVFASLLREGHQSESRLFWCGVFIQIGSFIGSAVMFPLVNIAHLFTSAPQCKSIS


How the values were obtained:
[1] = target: T1, RFT-1 (rft-1, Y47D7A.16); assay: inhibition of [3H]riboflavin uptake, transfected ARPE-19 cells, empty-vector uptake subtracted; type: cell-based; conditions: competition with [3H]riboflavin; 37°C, 5 min, Krebs-Ringer buffer
[2] = target: T2, RFT-2 (rft-2, Y47D7A.14); assay: [3H]riboflavin uptake, transfected ARPE-19 cells, empty-vector uptake subtracted; conditions: 14 nM [3H]riboflavin, pH 5.5, 37°C, 5 min, Krebs-Ringer buffer; labelled compound
[3] = substrate: Cc1cc2nc3c(=O)[nH]c(=O)nc-3n(C[C@H](O)[C@H](O)[C@H](O)CO)c2cc1C; assay: cells, lysate or membranes; conditions: 0.01–10 µM riboflavin, 37°C, 5 min, Krebs-Ringer buffer, labelled compound

Molecule	inhibition of [3H]riboflavin uptake, transfected ARPE-19 cells, empty-vector upt [1]	other results
Cc1cc2nc3[nH]c(=O)[nH]c(=O)c3nc2cc1C [lumichrome]	structural analogues lumichrome and lumiflavin significantly inhibited [^3H] riboflavin uptake	
Cc1cc2nc3c(=O)[nH]c(=O)nc-3n(C)c2cc1C [lumiflavin]	structural analogues lumichrome and lumiflavin significantly inhibited [^3H] riboflavin uptake	
Cc1cc2nc3c(=O)[nH]c(=O)nc-3n(C[C@H](O)[C@H](O)[C@H](O)CO)c2cc1C [riboflavin]		[3H]riboflavin uptake, transfected ARPE-19 cells, empty-vector uptake subtracted [2]: rft-2 transfected cells also had significantly higher riboflavin uptake compared to controls
RFT-1 (rft-1, Y47D7A.16) (Caenorhabditis elegans) (protein) MKTFLFTFCLVAIFGSSSWIGTNSVWMELSLLTAKLPEGWNLPSYLSAIVQIACLGPLIYSIIHKGIKMTIPTVPLIFIFMVLACICQLGLCFFWDDTGYIFGAIRSWPLYLLLFGLAIVDAISSVLFLPFMAQFHPSFLNAYFVGMGLSALIPSLLSLIQGTSNYWCDDNKTPHYYPPRFSVSMFFLINFFFTCAAVAAFLVLYKIGAHKNSSQVEPEPKHSIQIIQGDSTTDVNEVNTESSFQETSSIPDSSSATGARLAFLLLTTALVNAQMNGIVTSVQSYATLVYSQNTYHYAVTLSNVISPLASYLQFFVKIRSLPILAFLTLCSSLTTAVIIYLAALSPNWIFNSETAGTIISIASSLIAAGLHSYLRVMFAALLREGNQKESRLFWCGAFIQIGSFTGSAIMFPLVNVWKLFHSAPSCR		Km [3]: 1.4 ± 0.5 µM
